Source: the kinase profiling compilation of Christmann-Franck et al. (2016)

Experiments:
Assay in all cases: radiometric filter-binding kinase assay, Kinase HotSpot
Details in all cases: compound 0.5 µM; ATP 10 µM
NTRK3 (human) = NTRK3 (human) (UniProt Q16288)
PAK4 (human) = PAK4 (human) (UniProt O96013)
MAPK9 (human) = MAPK9 (human) (UniProt P45984)
LIMK1 (human) = LIMK1 (human) (UniProt P53667)
KDR (human) = KDR (human) (UniProt P35968)
MAP2K1 (human) = MAP2K1 (human) (UniProt Q02750)
KIT (human) = KIT (human) (UniProt P10721)
FGFR1 (human) = FGFR1 (human) (UniProt P11362)
MERTK (human) = MERTK (human) (UniProt Q12866)
PTK2 (human) = PTK2 (human) (UniProt Q05397)
DYRK2 (human) = DYRK2 (human) (UniProt Q92630)
JAK2 JH1 JH2 (human) = JAK2 JH1 JH2 (human) (UniProt O60674)
GRK4 (human) = GRK4 (human) (UniProt P32298)
CAMK4 (human) = CAMK4 (human) (UniProt Q16566)
STK4 (human) = STK4 (human) (UniProt Q13043)
AXL (human) = AXL (human) (UniProt P30530)
AXL (human), sequence (P30530 whole entry, looked up): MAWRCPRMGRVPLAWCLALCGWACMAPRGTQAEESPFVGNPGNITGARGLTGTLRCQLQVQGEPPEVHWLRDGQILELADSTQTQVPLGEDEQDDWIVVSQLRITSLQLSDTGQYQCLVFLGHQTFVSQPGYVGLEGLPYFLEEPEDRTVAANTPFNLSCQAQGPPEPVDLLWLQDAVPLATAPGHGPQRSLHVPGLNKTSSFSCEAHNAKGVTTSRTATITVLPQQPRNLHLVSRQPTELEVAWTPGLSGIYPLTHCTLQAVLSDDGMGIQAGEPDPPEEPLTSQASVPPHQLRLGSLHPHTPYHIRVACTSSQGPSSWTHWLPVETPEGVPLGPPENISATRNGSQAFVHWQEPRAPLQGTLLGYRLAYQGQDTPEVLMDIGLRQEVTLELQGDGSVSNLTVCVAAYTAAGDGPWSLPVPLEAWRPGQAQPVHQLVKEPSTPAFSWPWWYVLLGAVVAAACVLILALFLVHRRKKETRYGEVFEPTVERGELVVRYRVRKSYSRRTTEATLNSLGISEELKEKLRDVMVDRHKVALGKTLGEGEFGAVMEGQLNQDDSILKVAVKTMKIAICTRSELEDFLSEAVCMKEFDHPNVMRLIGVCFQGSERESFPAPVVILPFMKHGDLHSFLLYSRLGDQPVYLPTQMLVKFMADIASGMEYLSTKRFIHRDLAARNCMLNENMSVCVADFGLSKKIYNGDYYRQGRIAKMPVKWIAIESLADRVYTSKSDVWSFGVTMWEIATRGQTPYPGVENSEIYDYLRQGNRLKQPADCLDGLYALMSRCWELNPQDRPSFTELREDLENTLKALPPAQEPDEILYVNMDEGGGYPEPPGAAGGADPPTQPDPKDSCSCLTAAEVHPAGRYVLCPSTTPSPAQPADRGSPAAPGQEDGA

WNK3 (human) = WNK3 (human) (UniProt Q9BYP7)
WNK3 (human), sequence (Q9BYP7 whole entry, looked up): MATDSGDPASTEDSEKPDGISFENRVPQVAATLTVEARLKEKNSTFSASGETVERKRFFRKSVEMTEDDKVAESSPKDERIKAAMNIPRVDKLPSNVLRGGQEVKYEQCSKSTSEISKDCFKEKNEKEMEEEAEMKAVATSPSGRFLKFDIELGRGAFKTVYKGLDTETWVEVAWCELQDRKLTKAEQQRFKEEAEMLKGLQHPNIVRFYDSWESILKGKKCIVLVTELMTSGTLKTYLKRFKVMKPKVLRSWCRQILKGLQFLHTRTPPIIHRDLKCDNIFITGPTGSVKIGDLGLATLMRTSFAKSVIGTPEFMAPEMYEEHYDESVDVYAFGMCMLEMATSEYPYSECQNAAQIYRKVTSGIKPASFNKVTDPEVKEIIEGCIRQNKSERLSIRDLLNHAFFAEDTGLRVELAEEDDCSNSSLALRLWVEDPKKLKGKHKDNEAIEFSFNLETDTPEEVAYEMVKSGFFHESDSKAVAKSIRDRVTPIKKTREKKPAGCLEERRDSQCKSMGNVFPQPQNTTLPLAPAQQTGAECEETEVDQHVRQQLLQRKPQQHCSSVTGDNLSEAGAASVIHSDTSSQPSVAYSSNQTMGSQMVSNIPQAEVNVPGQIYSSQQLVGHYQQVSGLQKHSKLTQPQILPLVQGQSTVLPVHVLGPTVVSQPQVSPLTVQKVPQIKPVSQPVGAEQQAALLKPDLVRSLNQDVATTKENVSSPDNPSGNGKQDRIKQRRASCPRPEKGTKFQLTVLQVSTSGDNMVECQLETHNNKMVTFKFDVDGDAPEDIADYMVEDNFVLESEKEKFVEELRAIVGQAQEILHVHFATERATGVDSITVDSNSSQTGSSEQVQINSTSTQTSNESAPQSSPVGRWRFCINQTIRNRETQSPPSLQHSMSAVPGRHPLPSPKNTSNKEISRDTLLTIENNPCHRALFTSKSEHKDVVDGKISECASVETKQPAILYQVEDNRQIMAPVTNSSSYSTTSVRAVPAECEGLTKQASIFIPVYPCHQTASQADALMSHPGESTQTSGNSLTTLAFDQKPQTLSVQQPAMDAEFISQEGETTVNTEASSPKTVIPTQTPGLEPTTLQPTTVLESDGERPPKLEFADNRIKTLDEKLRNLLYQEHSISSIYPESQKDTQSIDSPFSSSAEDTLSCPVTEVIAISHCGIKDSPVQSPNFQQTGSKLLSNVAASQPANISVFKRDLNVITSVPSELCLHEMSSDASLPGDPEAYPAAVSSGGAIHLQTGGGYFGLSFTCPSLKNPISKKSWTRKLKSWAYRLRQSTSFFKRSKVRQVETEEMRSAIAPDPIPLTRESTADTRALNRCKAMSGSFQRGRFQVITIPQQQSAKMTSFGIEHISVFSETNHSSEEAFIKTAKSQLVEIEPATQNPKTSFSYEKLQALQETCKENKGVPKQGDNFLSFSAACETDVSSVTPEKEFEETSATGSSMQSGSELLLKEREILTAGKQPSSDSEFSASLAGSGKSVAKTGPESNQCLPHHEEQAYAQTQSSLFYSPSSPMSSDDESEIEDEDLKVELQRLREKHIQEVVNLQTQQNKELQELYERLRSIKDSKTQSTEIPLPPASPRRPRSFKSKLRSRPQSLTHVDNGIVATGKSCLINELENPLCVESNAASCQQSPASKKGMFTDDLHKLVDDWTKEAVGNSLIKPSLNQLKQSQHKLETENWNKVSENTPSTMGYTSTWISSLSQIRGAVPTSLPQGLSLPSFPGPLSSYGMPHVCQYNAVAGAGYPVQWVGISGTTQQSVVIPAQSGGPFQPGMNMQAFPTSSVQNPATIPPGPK

ABL2 (human) = ABL2 (human) (UniProt P42684)
PRKCI (human) = PRKCI (human) (UniProt P41743)
PRKCI (human), sequence (P41743 whole entry, looked up): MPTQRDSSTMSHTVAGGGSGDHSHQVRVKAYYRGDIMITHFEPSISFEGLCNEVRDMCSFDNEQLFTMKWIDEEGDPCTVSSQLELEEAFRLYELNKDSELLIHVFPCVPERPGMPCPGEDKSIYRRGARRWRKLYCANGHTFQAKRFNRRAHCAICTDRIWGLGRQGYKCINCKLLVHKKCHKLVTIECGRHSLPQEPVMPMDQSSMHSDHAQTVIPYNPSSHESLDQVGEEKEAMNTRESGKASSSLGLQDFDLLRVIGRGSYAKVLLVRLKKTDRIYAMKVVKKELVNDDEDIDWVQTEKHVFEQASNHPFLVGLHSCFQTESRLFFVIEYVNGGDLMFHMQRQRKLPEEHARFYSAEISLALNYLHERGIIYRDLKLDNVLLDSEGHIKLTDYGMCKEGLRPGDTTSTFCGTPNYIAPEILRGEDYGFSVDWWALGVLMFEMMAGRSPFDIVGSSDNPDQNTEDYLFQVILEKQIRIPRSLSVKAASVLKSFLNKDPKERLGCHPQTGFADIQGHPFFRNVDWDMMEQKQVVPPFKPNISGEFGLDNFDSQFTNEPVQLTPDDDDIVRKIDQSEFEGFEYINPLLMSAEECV

TEK (human) = TEK (human) (UniProt Q02763)
IKBKB (human) = IKBKB (human) (UniProt O14920)
EPHA8 (human) = EPHA8 (human) (UniProt P29322)
DAPK2 (human) = DAPK2 (human) (UniProt Q9UIK4)
CAMK2G (human) = CAMK2G (human) (UniProt Q13555)
BLK (human) = BLK (human) (UniProt P51451)
DMPK (human) = DMPK (human) (UniProt Q09013)
DMPK (human), sequence (Q09013 whole entry, looked up): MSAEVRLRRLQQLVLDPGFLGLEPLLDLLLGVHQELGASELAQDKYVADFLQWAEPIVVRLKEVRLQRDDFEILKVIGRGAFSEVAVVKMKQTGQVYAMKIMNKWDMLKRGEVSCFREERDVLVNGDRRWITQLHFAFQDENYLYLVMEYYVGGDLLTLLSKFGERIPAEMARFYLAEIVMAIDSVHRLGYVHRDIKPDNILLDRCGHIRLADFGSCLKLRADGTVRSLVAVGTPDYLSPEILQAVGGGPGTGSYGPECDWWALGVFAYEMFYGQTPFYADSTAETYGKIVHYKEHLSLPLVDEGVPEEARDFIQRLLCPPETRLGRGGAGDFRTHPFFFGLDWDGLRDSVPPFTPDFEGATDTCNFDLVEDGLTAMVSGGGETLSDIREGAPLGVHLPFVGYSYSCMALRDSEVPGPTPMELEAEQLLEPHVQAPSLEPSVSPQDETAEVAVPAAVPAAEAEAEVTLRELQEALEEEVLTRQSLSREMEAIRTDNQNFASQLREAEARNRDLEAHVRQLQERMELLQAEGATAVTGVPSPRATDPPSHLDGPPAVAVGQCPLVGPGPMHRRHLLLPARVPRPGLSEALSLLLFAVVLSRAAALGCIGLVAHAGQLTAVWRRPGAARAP

PLK3 (human) = PLK3 (human) (UniProt Q9H4B4)
AURKA (human) = AURKA (human) (UniProt O14965)
NTRK1 (human) = NTRK1 (human) (UniProt P04629)
RPS6KA1 KD1 KD2 (human) = RPS6KA1 KD1 KD2 (human) (UniProt Q15418)
PAK3 (human) = PAK3 (human) (UniProt O75914)
PAK3 (human), sequence (O75914 whole entry, looked up): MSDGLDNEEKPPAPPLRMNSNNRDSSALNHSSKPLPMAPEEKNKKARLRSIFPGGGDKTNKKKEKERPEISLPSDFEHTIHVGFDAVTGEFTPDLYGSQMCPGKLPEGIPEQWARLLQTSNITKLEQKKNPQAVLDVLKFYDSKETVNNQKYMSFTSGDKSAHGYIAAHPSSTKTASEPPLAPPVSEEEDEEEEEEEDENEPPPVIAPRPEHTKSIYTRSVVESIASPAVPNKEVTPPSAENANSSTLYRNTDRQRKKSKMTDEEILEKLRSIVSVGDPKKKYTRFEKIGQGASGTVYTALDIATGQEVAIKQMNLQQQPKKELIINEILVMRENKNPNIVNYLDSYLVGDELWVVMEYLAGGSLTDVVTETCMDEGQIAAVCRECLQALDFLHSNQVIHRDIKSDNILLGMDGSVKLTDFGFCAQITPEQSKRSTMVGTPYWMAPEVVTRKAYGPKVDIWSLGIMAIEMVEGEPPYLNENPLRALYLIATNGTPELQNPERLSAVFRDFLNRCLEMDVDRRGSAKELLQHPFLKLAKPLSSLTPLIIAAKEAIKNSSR

BRSK1 (human) = BRSK1 (human) (UniProt Q8TDC3)
CDK1 CCNA2 (human) = CDK1 CCNA2 (human) (UniProt P06493+P20248)
PIM2 (human) = PIM2 (human) (UniProt Q9P1W9)
EPHA1 (human) = EPHA1 (human) (UniProt P21709)
PRKCG (human) = PRKCG (human) (UniProt P05129)
CHEK2 (human) = CHEK2 (human) (UniProt O96017)
EPHA2 (human) = EPHA2 (human) (UniProt P29317)
YES1 (human) = YES1 (human) (UniProt P07947)
MATK (human) = MATK (human) (UniProt P42679)
FLT1 (human) = FLT1 (human) (UniProt P17948)
FGR (human) = FGR (human) (UniProt P09769)
FGR (human), sequence (P09769 whole entry, looked up): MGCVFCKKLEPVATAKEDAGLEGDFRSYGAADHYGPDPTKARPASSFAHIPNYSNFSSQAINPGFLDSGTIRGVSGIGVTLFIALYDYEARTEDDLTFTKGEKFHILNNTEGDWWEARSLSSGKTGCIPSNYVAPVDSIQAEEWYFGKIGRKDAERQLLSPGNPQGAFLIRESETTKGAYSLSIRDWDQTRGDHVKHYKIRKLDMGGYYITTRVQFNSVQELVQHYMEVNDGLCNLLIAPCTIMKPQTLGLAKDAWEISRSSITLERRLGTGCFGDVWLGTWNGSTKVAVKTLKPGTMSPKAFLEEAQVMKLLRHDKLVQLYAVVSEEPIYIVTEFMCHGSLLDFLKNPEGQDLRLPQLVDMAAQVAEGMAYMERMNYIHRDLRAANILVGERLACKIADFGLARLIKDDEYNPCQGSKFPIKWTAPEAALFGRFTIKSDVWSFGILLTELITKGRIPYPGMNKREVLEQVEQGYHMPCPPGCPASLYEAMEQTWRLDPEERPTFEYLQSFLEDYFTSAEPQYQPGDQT

CCCNC(=O)Nc1ccc(Oc2ncnc3cc(OC)c(OC)cc23)cc1Cl
residual activity (NTRK3 (human)): 89% | residual activity (PAK4 (human)): 95.7% | residual activity (MAPK9 (human)): 104% | residual activity (LIMK1 (human)): 81.6% | residual activity (KDR (human)): 19.7% | residual activity (MAP2K1 (human)): 99.2% | residual activity (KIT (human)): 39.2% | residual activity (FGFR1 (human)): 75.4% | residual activity (MERTK (human)): 67.7% | residual activity (PTK2 (human)): 99.6% | residual activity (DYRK2 (human)): 108% | residual activity (JAK2 JH1 JH2 (human)): 96.9% | residual activity (GRK4 (human)): 94.4% | residual activity (CAMK4 (human)): 99.1% | residual activity (STK4 (human)): 92.8% | residual activity (AXL (human)): 101% | residual activity (WNK3 (human)): 93.8% | residual activity (ABL2 (human)): 90.5% | residual activity (PRKCI (human)): 93% | residual activity (TEK (human)): 87% | residual activity (IKBKB (human)): 100% | residual activity (EPHA8 (human)): 105% | residual activity (DAPK2 (human)): 108% | residual activity (CAMK2G (human)): 90.5% | residual activity (BLK (human)): 96.8% | residual activity (DMPK (human)): 100% | residual activity (PLK3 (human)): 95% | residual activity (AURKA (human)): 89.2% | residual activity (NTRK1 (human)): 93.2% | residual activity (RPS6KA1 KD1 KD2 (human)): 92.3% | residual activity (PAK3 (human)): 94.7% | residual activity (BRSK1 (human)): 98.5% | residual activity (CDK1 CCNA2 (human)): 97.7% | residual activity (PIM2 (human)): 101% | residual activity (EPHA1 (human)): 96.9% | residual activity (PRKCG (human)): 120% | residual activity (CHEK2 (human)): 80% | residual activity (EPHA2 (human)): 104% | residual activity (YES1 (human)): 82.1% | residual activity (MATK (human)): 96.8% | residual activity (FLT1 (human)): 65.2% | residual activity (FGR (human)): 70.2%

COc1ccc(-c2cnc3c(-c4ccsc4)cnn3c2)cc1
residual activity (NTRK3 (human)): 49.8% | residual activity (PAK4 (human)): 72.5% | residual activity (MAPK9 (human)): 104% | residual activity (LIMK1 (human)): 71.2% | residual activity (KDR (human)): 79.8% | residual activity (MAP2K1 (human)): 98.2% | residual activity (KIT (human)): 36.2% | residual activity (FGFR1 (human)): 80.3% | residual activity (MERTK (human)): 81.2% | residual activity (PTK2 (human)): 93% | residual activity (DYRK2 (human)): 71.1% | residual activity (JAK2 JH1 JH2 (human)): 98.4% | residual activity (GRK4 (human)): 97% | residual activity (CAMK4 (human)): 98.4% | residual activity (STK4 (human)): 97.3% | residual activity (AXL (human)): 96.7% | residual activity (WNK3 (human)): 92.7% | residual activity (ABL2 (human)): 63.4% | residual activity (PRKCI (human)): 96.2% | residual activity (TEK (human)): 99.1% | residual activity (IKBKB (human)): 99.6% | residual activity (EPHA8 (human)): 90.3% | residual activity (DAPK2 (human)): 87.4% | residual activity (CAMK2G (human)): 93.7% | residual activity (BLK (human)): 83.5% | residual activity (DMPK (human)): 100% | residual activity (PLK3 (human)): 98% | residual activity (AURKA (human)): 68% | residual activity (NTRK1 (human)): 93.2% | residual activity (RPS6KA1 KD1 KD2 (human)): 85.7% | residual activity (PAK3 (human)): 96.4% | residual activity (BRSK1 (human)): 81.5% | residual activity (CDK1 CCNA2 (human)): 87.4% | residual activity (PIM2 (human)): 105% | residual activity (EPHA1 (human)): 91.5% | residual activity (PRKCG (human)): 112% | residual activity (CHEK2 (human)): 89.1% | residual activity (EPHA2 (human)): 95.9% | residual activity (YES1 (human)): 67.7% | residual activity (MATK (human)): 99.4% | residual activity (FLT1 (human)): 75.7% | residual activity (FGR (human)): 72.3%

O=c1cc(-c2cccc3c2Sc2ccccc2S3)oc(N2CCOCC2)c1
residual activity (NTRK3 (human)): 99.7% | residual activity (PAK4 (human)): 116% | residual activity (MAPK9 (human)): 97.7% | residual activity (LIMK1 (human)): 103% | residual activity (KDR (human)): 95.9% | residual activity (MAP2K1 (human)): 94.9% | residual activity (KIT (human)): 96.8% | residual activity (FGFR1 (human)): 99.2% | residual activity (MERTK (human)): 97% | residual activity (PTK2 (human)): 113% | residual activity (DYRK2 (human)): 104% | residual activity (JAK2 JH1 JH2 (human)): 105% | residual activity (GRK4 (human)): 105% | residual activity (CAMK4 (human)): 94% | residual activity (STK4 (human)): 95% | residual activity (AXL (human)): 106% | residual activity (WNK3 (human)): 109% | residual activity (ABL2 (human)): 92% | residual activity (PRKCI (human)): 103% | residual activity (TEK (human)): 100% | residual activity (IKBKB (human)): 101% | residual activity (EPHA8 (human)): 110% | residual activity (DAPK2 (human)): 98.8% | residual activity (CAMK2G (human)): 106% | residual activity (BLK (human)): 96.2% | residual activity (DMPK (human)): 94.8% | residual activity (PLK3 (human)): 98.1% | residual activity (AURKA (human)): 91.7% | residual activity (NTRK1 (human)): 99.4% | residual activity (RPS6KA1 KD1 KD2 (human)): 97.6% | residual activity (PAK3 (human)): 95% | residual activity (BRSK1 (human)): 98.2% | residual activity (CDK1 CCNA2 (human)): 104% | residual activity (PIM2 (human)): 118% | residual activity (EPHA1 (human)): 84.7% | residual activity (PRKCG (human)): 96.9% | residual activity (CHEK2 (human)): 102% | residual activity (EPHA2 (human)): 96.2% | residual activity (YES1 (human)): 89.4% | residual activity (MATK (human)): 102% | residual activity (FLT1 (human)): 90.8% | residual activity (FGR (human)): 84.9%

Cc1ccc(NC(=O)c2ccc(CN3CCN(C)CC3)cc2)cc1Nc1nc(-c2cccnc2)cs1
residual activity (NTRK3 (human)): 94.1% | residual activity (PAK4 (human)): 103% | residual activity (MAPK9 (human)): 110% | residual activity (LIMK1 (human)): 98.1% | residual activity (KDR (human)): 106% | residual activity (MAP2K1 (human)): 111% | residual activity (KIT (human)): 41.3% | residual activity (FGFR1 (human)): 103% | residual activity (MERTK (human)): 109% | residual activity (PTK2 (human)): 98.6% | residual activity (DYRK2 (human)): 109% | residual activity (JAK2 JH1 JH2 (human)): 96.3% | residual activity (GRK4 (human)): 108% | residual activity (CAMK4 (human)): 98.6% | residual activity (STK4 (human)): 101% | residual activity (AXL (human)): 86.5% | residual activity (WNK3 (human)): 99.9% | residual activity (ABL2 (human)): 57.7% | residual activity (PRKCI (human)): 93.7% | residual activity (TEK (human)): 97.2% | residual activity (IKBKB (human)): 97.8% | residual activity (EPHA8 (human)): 93.1% | residual activity (DAPK2 (human)): 104% | residual activity (CAMK2G (human)): 98.6% | residual activity (BLK (human)): 57.5% | residual activity (DMPK (human)): 104% | residual activity (PLK3 (human)): 101% | residual activity (AURKA (human)): 105% | residual activity (NTRK1 (human)): 97.1% | residual activity (RPS6KA1 KD1 KD2 (human)): 97.2% | residual activity (PAK3 (human)): 106% | residual activity (BRSK1 (human)): 102% | residual activity (CDK1 CCNA2 (human)): 98% | residual activity (PIM2 (human)): 118% | residual activity (EPHA1 (human)): 96.5% | residual activity (PRKCG (human)): 95.8% | residual activity (CHEK2 (human)): 101% | residual activity (EPHA2 (human)): 91.2% | residual activity (YES1 (human)): 50.7% | residual activity (MATK (human)): 85.9% | residual activity (FLT1 (human)): 96.4% | residual activity (FGR (human)): 43.6%
